{
  "source": "patent US20250269072A1",
  "about": "“PROCESSES FOR PREPARING RADIOLABELLED CONJUGATES” (CENTENARY INSTITUTE OF CANCER MEDICINE AND CELL BIOLOGY, priority 2021, published 2025)",
  "key": {"angiogenesis": {"test_system": "angiogenesis", "conditions": "in vivo; cited from earlier work"}, "[1]": {"test_system": "quiescent endothelial cells", "conditions": "quiescent endothelial cells in vitro; cited from earlier work"}, "proliferating cells": {"test_system": "proliferating cells", "conditions": "cited from earlier work"}, "[2]": {"assay": "In vitro stability of labelled NODAGA-GSAO products at room temperature (HPLC)", "type": "physicochemical", "experimental": "The in vitro stability of the complexed product is an important determinant for the potential clinical use of a therapeutic compound. Post-labelling stability was assessed by incubation of the ^175Lu- and ^63Cu-labelled NODAGA-GSAO products at room temperature.\nThe percentage of labelling at different time-points following formation of the isotope-NODAGA-GSAO complex was measured. Results are shown in FIG. 5 for A) the ^175Lu-labelled product obtained from incubation for 30 minutes at pH 5.0 at 80° C. and B) the ^63Cu-labelled product obtained from incubation for 30 minutes at pH 5.0 at room temperature. At certain time points, aliquots were taken and the labelling (black circles) of NODAGA-GSAO were assessed by HPLC. Data are from one or two (average±S.D. of the two measurements) experiments."}, "[3]": {"assay": "Radiolysis of ^177Lu-CDI after synthesis (radio-HPLC)", "type": "physicochemical", "experimental": "Labelling of CDI (54 μg) with ^177Lutetium (^177Lu) was performed in 0.083 M sodium acetate buffer at pH 5.0. 177Lu (500 MBq) and ascorbic acid (0.002 M) were added and the mixture was incubated at 85° C. for 30 min. In a similar reaction, CDI was labelled with ^177Lu in the presence of 0.01 M ascorbic acid and 0.028 M GSH.\nThe experiments using the radioisotope ^177Lu were performed on a Shimadzu LC-20 series LC system with two LC-20AP pumps, an SPD-20A UV/VIS detector and analysed using the LabLogic Laura software (version 4.2.11.129 SP2). […] The analytical column was an Alltima HP C18 150×4.6 mm 5 μm particle size (Hichrom, Berkshire, UK). The column was equilibrated in a mixture of 0.1% (v/v) trifluoroacetic acid in MiliQ water (mobile phase A) and acetonitrile (mobile phase B; 98/2, v/v). Samples (100 μL) were loaded on the column using the autosampler at room temperature. Products were eluted using a gradient of […] mobile phase B in mobile phase A over 0-18-28-38-42 min (^177Lu) or 0-18-28-32-33 min (^175Lu) at a flowrate of 0.6 mL/min. Absorbance was measured at 210 nm, 256 nm, and 280 nm and radioactivity was detected using a LabLogic Dual Scan-RAM."}, "[4]": {"assay": "^177Lu-CDI dosimetry estimated from ^68Ga-CDI biodistribution and kinetics", "set-up": "species or system human", "description": "The biodistribution and kinetics of ^68Ga-CDI was used to estimate […] dosimetry. […] These are similar to measured renal doses from ^177Lu-dotatate and ^177Lu-PSMA. Based on these estimations and comparability of renal dose to ^177Lu-dotatate and ^177Lu-PSMA, the initial […] level of ^177Lu-CDI will be approximately 2.0 GBq."}, "[5]": {"conditions": "cited from earlier work"}, "[6]": {"conditions": "Afshar-Oromieh et al., 4 subjects"}},
  "note": "Where two headings read alike, the source gives them in different places.",
  "data": [
    {"smiles": "N[C@@H](CCC(=O)N[C@@H](CSCC(=O)Nc1ccc([As](O)O)cc1)C(=O)NCC(=O)O)C(=O)O", "note": "[GSAO, 4-(N—(S-glutathionylacetyl)amino)phenylarsenous acid]", "values": [
      {"measurement": "effect on angiogenesis", "setting": "angiogenesis", "result": "inhibits angiogenesis in vivo"},
      {"measurement": "toxicity", "setting": "[1]", "result": "nontoxic to quiescent endothelial cells in vitro"},
      {"measurement": "toxicity", "setting": "proliferating cells", "result": "toxic to proliferating cells"}
    ]},
    {"smiles": "O=C(O)CNC(=O)[C@H](CSCC(=O)Nc1ccc([As](O)O)cc1)NC(=O)CC[C@H](NC(=O)CCC1C(=O)[O][175Lu]2[O]C(=O)CN3CCN(CCN1CC3)CC(=O)[O]2)C(=O)O", "note": "(stereo partly drawn) [^175Lu-NODAGA-GSAO]", "values": [
      {"measurement": "by-products", "setting": "[2]; room temperature storage", "result": "4-7.5 % of total AUC"},
      {"measurement": "labelling remaining", "setting": "[2]; room temperature, after 14 days of storage", "result": "~90", "unit": "%"}
    ]},
    {"smiles": "O=C(O)CNC(=O)[C@H](CSCC(=O)Nc1ccc([As](O)O)cc1)NC(=O)CC[C@H](NC(=O)CCC1C(=O)[O][177Lu]2[O]C(=O)CN3CCN(CCN1CC3)CC(=O)[O]2)C(=O)O", "note": "(stereo partly drawn) [^177Lu-NODAGA-GSAO]", "values": [
      {"measurement": "radiolysis after synthesis", "setting": "[3]; […] incubation at room temperature, 0.002 M ascorbic acid", "result": "did not show an increase in radiolysis"},
      {"measurement": "radiolysis", "setting": "[3]; labelling in presence of 0.01 M ascorbic acid and 0.028 M GSH", "result": "prevented radiolysis during and up to 72 h post CDI labelling"},
      {"measurement": "estimated renal dose", "setting": "[4]; combined physical decay and biological clearance model", "result": 0.36, "unit": "mGy/MBq"},
      {"measurement": "estimated renal dose", "setting": "[4]; physical decay only model", "result": 0.98, "unit": "mGy/MBq"}
    ]},
    {"smiles": "O=C([O-])CN(CCN(CC(=O)[O-])Cc1cc(CCC(=O)NCCCCCC(=O)NCCCC[C@H](NC(=O)N[C@@H](CCC(=O)O)C(=O)O)C(=O)O)ccc1[O-])Cc1cc(CCC(=O)O)ccc1[O-].[68Ga+3].[OH3+]", "note": "[^68Ga PSMA]", "values": [
      {"measurement": "mean effective dose", "setting": "[5]; [6]", "result": "2.3E-02", "unit": "mSv/MBq"},
      {"measurement": "renal dose", "setting": "[5]; [6]", "result": "2.6E-01", "unit": "mSv/MBq"},
      {"measurement": "urinary bladder dose", "setting": "[5]; [6]", "result": "1.3E-01", "unit": "mSv/MBq"},
      {"measurement": "Effective Dose", "setting": "[5]; Pfob et al., 5 subjects", "result": "2.37E-02", "unit": "mSv/MBq"},
      {"measurement": "renal dose", "setting": "[5]; Pfob et al., 5 subjects", "result": "1.21E-01", "unit": "mSv/MBq"},
      {"measurement": "urinary bladder dose", "setting": "[5]; Pfob et al., 5 subjects", "result": "1.64E-01", "unit": "mSv/MBq"}
    ]}
  ]
}
